Source: US7348347B2, “Substituted 4,5,6,7-tetrahydrobenzthiazol-2-ylamine compounds” (Gruenenthal GmbH, priority 2004, dated 2008)

Legend:
5-HT uptake = biological target: T1, 5-HT uptake (Rattus norvegicus, UniProt P31652); assay: Inhibition of 5-HT uptake in rat brain synaptosomes; format: biochemical; settings: [3H]-5-HT
T1 construct: from tissue; host or cells: rat brain synaptosomes (P2 fraction) from marrow (medulla) and pons
Protocol: The relevant literature reference is enclosed herein by reference and is to be regarded as part of the disclosure.
The homogenate is centrifuged at 4° C. for 10 minutes at 1000 g. Following subsequent centrifugation at 17,000 g for 55 minutes, the synaptosomes (P2 fraction) are obtained, which are then resuspended in 0.32 M […] (0.5 mL/100 mg of the original weight).
The respective uptake was measured in a 96 well microtiter plate. The volume was 250 μL and the incubation was carried out at room temperature (ca 20-25° C.) under a blanket of oxygen.
The 96 samples through were then filtered through a Unifilter GF/B® microtiter plate (Packard) and washed with 200 mL of incubated buffer with the aid of a “Brabdel Cell-Harvester MPXRI 96T”. The Unifilter GF/B plate was dried at 55° C. over a period of 1 h. The plate was then sealed with a back seal® (Packard) and there were then added 35 μL of scintillant fluid per well (Ultima Gold, Packard).
A detailed description of the method is disclosed in the literature, for example, in M. Ch.

NA transporter = biological target: T2, NA transporter (Rattus norvegicus, UniProt Q63380); assay: Inhibition of noradrenaline uptake in rat brain synaptosomes; format: biochemical; settings: 10 μM, rat synaptosomes (hypothalamus), [3H]-NA; for inhibition at 10 µM: read-out: % Inhibition of NA uptake [10 μM]
T2 construct: from tissue; host or cells: rat brain synaptosomes (P2 fraction) from hypothalamus
T2 sequence (Q63380 1-617): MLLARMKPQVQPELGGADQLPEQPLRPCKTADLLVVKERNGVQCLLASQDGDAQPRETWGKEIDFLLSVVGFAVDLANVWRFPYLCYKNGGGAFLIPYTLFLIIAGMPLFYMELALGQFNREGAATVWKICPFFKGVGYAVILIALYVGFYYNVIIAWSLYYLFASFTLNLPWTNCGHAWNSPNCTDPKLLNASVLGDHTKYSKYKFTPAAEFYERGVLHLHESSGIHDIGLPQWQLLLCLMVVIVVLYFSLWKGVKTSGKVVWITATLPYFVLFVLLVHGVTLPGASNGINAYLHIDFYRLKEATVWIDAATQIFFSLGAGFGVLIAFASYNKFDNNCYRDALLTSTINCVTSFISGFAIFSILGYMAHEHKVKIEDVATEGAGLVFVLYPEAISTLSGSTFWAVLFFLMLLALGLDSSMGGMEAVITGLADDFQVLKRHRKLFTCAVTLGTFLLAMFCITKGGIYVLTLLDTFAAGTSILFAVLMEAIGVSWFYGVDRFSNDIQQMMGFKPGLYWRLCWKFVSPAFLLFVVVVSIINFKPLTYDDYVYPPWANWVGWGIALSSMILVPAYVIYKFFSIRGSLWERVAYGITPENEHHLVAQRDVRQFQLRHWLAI
Protocol: II. […] For in vitro studies, synaptosomes of rat brain areas are freshly isolated, as described in the article “The isolation of nerve endings from brain” by E. G. Gray and […]. Anatomy 96, pages 79-88, 1962. The relevant literature reference is enclosed herein by reference and is to be regarded as part of the disclosure. […] The homogenate is centrifuged at 4° C. for 10 minutes at 1000 g. […] The respective uptake was measured in a 96 well microtiter plate. The volume was 250 μL and the incubation was carried out at room temperature (ca 20-25° C.) under a blanket of oxygen. […] The 96 samples through were then filtered through a Unifilter GF/B® microtiter plate (Packard) and washed with 200 mL of incubated buffer with the aid of a “Brabdel Cell-Harvester MPXRI 96T”. The Unifilter GF/B plate was dried at 55° C. over a period of 1 h. The plate was then sealed with a back seal® (Packard) and there were then added 35 μL of scintillant fluid per well (Ultima Gold, Packard). Following sealing with a top seal® (Packard) and following adjustment of the equilibrium (approximately over a period of 5 h), the radioactivity is determined in a 1450 Microbeta® (Wallac). […] The amount of protein used in the above determination corresponded to the values known from the literature, such as is described in “Protein measurement with the folin phenol reagent”, Lowry et al., J. Biol. Chem., 193, 265-275, 1951. A detailed description of the method is disclosed in the literature, for example, in […], and B. […] The relevant literature references are incorporated herein by reference and are to be regarded as part of the disclosure.

[1] = rat synaptosomes (medulla and pons)

T1 sequence (P31652 whole entry): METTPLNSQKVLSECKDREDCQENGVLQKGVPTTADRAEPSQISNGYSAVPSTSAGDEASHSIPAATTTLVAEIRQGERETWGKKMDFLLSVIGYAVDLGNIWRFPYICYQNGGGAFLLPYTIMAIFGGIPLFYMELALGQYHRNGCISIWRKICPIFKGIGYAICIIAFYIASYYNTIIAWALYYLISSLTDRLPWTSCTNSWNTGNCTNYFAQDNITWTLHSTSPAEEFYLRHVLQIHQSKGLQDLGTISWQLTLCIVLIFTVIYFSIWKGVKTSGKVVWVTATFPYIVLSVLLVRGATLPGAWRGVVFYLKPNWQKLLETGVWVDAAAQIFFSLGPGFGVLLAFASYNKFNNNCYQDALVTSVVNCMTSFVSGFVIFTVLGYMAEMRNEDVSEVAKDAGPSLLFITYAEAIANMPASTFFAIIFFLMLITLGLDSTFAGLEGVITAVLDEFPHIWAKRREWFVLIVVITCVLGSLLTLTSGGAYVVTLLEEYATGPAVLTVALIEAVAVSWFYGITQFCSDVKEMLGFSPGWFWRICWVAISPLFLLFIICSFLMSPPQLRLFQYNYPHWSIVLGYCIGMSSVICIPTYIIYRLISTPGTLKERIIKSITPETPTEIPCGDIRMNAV

SMILES: O=C(CC1CCCCC1)Nc1nc2c(s1)CCCC2C(=O)NCC1CCN(Cc2c(F)cccc2Cl)C1 (centres unmarked) [Example 78, 2-(2-Cyclohexylacetylamino)-4,5,6,7-tetrahydrobenzthiazol-4-carboxylic acid [1-(2-chloro-6-fluorobenzyl)pyrrolidin-3-yl]methylamide]
- inhibition at 10 µM (5-HT uptake; [1]): 54%
- inhibition at 10 µM (NA transporter): 41%

SMILES: CCCCCC(=O)Nc1nc2c(s1)CCCC2C(=O)N1CCN(c2ccccc2F)CC1 (centres unmarked) [Example 52, Hexanoic acid{4-[4-(2-fluorophenyl)piperazin-1-carbonyl]-4,5,6,7-tetrahydrobenzthiazol-2-yl}amide]
- % Inhibition of NA uptake [10 μM] (NA transporter): 72%

SMILES: O=C(CCc1ccccc1)Nc1nc2c(s1)CCCC2C(=O)NCC1CCN(Cc2cc3ccccc3o2)C1 (centres unmarked) [Example 48, 2-(3-Phenylpropionylamino)-4,5,6,7-tetrahydrobenzthiazol-4-carboxylic acid (1-benzofuran-2-ylmethylpyrrolidin-3-yl)methylamide]
- inhibition at 10 µM (5-HT uptake; [1]): 51%
- inhibition at 10 µM (NA transporter): 67%

SMILES: COc1ccc(C(=O)Nc2nc3c(s2)CCCC3C(=O)NCC2CCN(Cc3c(F)cccc3Cl)C2)cc1 (centres unmarked) [Example 12, 2-(4-Methoxybenzoylamino)-4,5,6,7-tetrahydrobenzthiazol-4-carboxylic acid [1-(2-chloro-6-fluorobenzyl)pyrrolidin-3-yl]methylamide]
- inhibition at 10 µM (5-HT uptake; [1]): 55%
- inhibition at 10 µM (NA transporter): 48%

SMILES: N#Cc1ccccc1N1CCN(C(=O)C2CCCc3sc(NC(=O)CCc4ccccc4)nc32)CC1 (centres unmarked) [Example 77, N-{4-[4-(2-Cyan-phenyl)piperazin-1-carbonyl]-4,5,6,7-tetrahydrobenzthiazol-2-yl}-3-phenylpropionamide]
- % Inhibition of NA uptake [10 μM] (NA transporter): 44%

SMILES: CN(C(=O)C1CCCc2sc(NC(=O)COc3ccccc3)nc21)C1CCN(Cc2ccccc2C(F)(F)F)C1 (centres unmarked) [Example 54, 2-(2-Phenoxyacetylamino)-4,5,6,7-tetrahydrobenzthiazol-4-carboxylic acid methyl-[1-(2-trifluoromethylbenzyl)pyrrolidin-3-yl]amide]
- inhibition at 10 µM (NA transporter): 44%

SMILES: O=C(Nc1nc2c(s1)CCCC2C(=O)N1CCN(Cc2cc3ccccc3o2)CC1)c1ccoc1 (centres unmarked) [Example 17, Furan-3-carboxylic acid[4-(4-benzofuran-2-ylmethylpiperazin-1-carbonyl)-4,5,6,7-tetrahydrobenzthiazol-2-yl]amide]
- % Inhibition of 5-HT uptake [10 μM] (5-HT uptake; [1]): 72%
- % Inhibition of NA uptake [10 μM] (NA transporter): 81%

SMILES: CC(C(=O)Nc1nc2c(s1)CCCC2C(=O)NC1CCN(Cc2ccc(Oc3ccccc3)cc2)C1)c1ccccc1 (centres unmarked) [Example 15, 2-(2-Phenylpropionylamino)-4,5,6,7-tetrahydrobenzthiazol-4-carboxylic acid[1-(4-phenoxybenzyl)pyrrolidin-3-yl]amide]
- % Inhibition of NA uptake [10 μM] (NA transporter): 91%

SMILES: CC(C(=O)Nc1nc2c(s1)CCCC2C(=O)NCCN(C)C)c1ccccc1 (centres unmarked) [Example 19, 2-(2-Phenylpropionylamino)-4,5,6,7-tetrahydrobenzthiazol-4-carboxylic acid (2-dimethylaminoethyl)amide]
- inhibition at 10 µM (NA transporter): 71%

SMILES: O=C(Nc1nc2c(s1)CCCC2C(=O)NCCN1CCCCCC1)c1ccoc1 (centres unmarked) [Example 16, 2-[(Furan-3-carbonyl)amino]-4,5,6,7-tetrahydrobenzthiazol-4-carboxylic acid (2-azepan-1-ylethyl)amide]
- inhibition at 10 µM (NA transporter): 88%

SMILES: CCN(CC)CCNC(=O)C1CCCc2sc(NC(=O)CCc3ccccc3)nc21 (centres unmarked) [Example 38, 2-(3-Phenylpropionylamino)-4,5,6,7-tetrahydrobenzthiazol-4-carboxylic acid (2-diethylaminoethyl)amide]
- inhibition at 10 µM (NA transporter): 42%

SMILES: CC(c1ccccc1)N1CCN(C(=O)C2CCCc3sc(NC(=O)COc4ccccc4)nc32)CC1 (centres unmarked) [Example 66, 2-Phenoxy-N-{4-[4-(1-phenylethyl)piperazin-1-carbonyl]-4,5,6,7-tetrahydrobenzthiazol-2-yl}acetamide]
- inhibition at 10 µM (NA transporter): 48%

SMILES: N#Cc1ccccc1N1CCN(C(=O)C2CCCc3sc(NC(=O)c4ccco4)nc32)CC1 (centres unmarked) [Example 47, Furan-2-carboxylic acid{4-[4-(2-cyan-phenyl)piperazin-1-carbonyl]-4,5,6,7-tetrahydrobenzthiazol-2-yl]-amide]
- % Inhibition of NA uptake [10 μM] (NA transporter): 47%

SMILES: COc1ccccc1CC(=O)Nc1nc2c(s1)CCCC2C(=O)NCC1CCN(Cc2cc3ccccc3o2)C1 (centres unmarked) [Example 56, 2-[2-(2-Methoxyphenyl)acetylamino]-4,5,6,7-tetrahydrobenzthiazol-4-carboxylic acid (1-benzofuran-2-ylmethylpyrrolidin-3-yl)methylamide]
- inhibition at 10 µM (NA transporter): 49%

SMILES: COc1ccc2ccccc2c1CN1CCN(C(=O)C2CCCc3sc(NC(=O)CC(C)(C)C)nc32)CC1 (centres unmarked) [Example 79, N-{4-[4-(2-Methoxynaphthalene-1-ylmethyl)piperazin-1-carbonyl]-4,5,6,7-tetrahydrobenzthiazol-2-yl}-3,3-dimethylbutyramide]
- inhibition at 10 µM (NA transporter): 71%

SMILES: O=C(C=Cc1ccco1)Nc1nc2c(s1)CCCC2C(=O)N1CCN(Cc2ccsc2)CC1 (centres unmarked) [Example 11, 3-Furan-2-yl-N-[4-(4-thiophen-3-ylmethylpiperazin-1-carbonyl)-4,5,6,7-tetrahydrobenzthiazol-2-yl]acrylamide]
- inhibition at 10 µM (NA transporter): 57%

SMILES: CC(C(=O)Nc1nc2c(s1)CCCC2C(=O)NCC1CCN(Cc2ccccc2OCc2ccccc2)C1)c1ccccc1 (centres unmarked) [Example 36, 2-(2-Phenylpropionylamino)-4,5,6,7-tetrahydrobenzthiazol-4-carboxylic acid[1-(2-benzyloxybenzyl)pyrrolidin-3-yl]methylamide]
- % Inhibition of NA uptake [10 μM] (NA transporter): 62%

SMILES: CN1CCCN(C(=O)C2CCCc3sc(NC(=O)COc4ccccc4)nc32)CC1 (centres unmarked) [Example 2, N-[4-(4-Methyl-[1,4]diazepam-1-carbonyl)-4,5,6,7-tetrahydrobenzthiazol-2-yl]-2-phenoxy acetamide]
- % Inhibition of 5-HT uptake [10 μM] (5-HT uptake; rat synaptosomes (and pons)): 58%

SMILES: O=C(Nc1nc2c(s1)CCCC2C(=O)N1CCN(Cc2ccccc2F)CC1)c1ccc2ccccc2c1 (centres unmarked) [Example 53, Naphthalene-2-carboxylic acid{4-[4-(2-fluorobenzyl)piperazin-1-carbonyl]-4,5,6,7-tetrahydrobenzthiazol-2-yl}amide]
- % Inhibition of 5-HT uptake [10 μM] (5-HT uptake; [1]): 42%

SMILES: CN(C)c1ccc(CNC(=O)C2CCCc3sc(NC(=O)c4ccco4)nc32)cc1 (centres unmarked) [Example 58, 2-[(Furan-2-carbonyl)amino]-4,5,6,7-tetrahydrobenzthiazol-4-carboxylic acid 4-dimethylaminobenzylamide]
- inhibition at 10 µM (NA transporter): 72%

SMILES: COc1ccccc1CC(=O)Nc1nc2c(s1)CCCC2C(=O)N1CCN(Cc2cc(OC)c3c(c2)OCO3)CC1 (centres unmarked) [Example 6, N-{4-[4-(7-Methoxybenzo[1, 3]dioxol-5-ylmethyl)piperazin-1-carbonyl]-4,5,6,7-tetrahydrobenzthiazol-2-yl}-2-(2-methoxyphenyl)acetamide]
- inhibition at 10 µM (5-HT uptake; [1]): 51%

SMILES: CCOc1ccccc1C(=O)Nc1nc2c(s1)CCCC2C(=O)NCCCN(C)c1ccccc1 (centres unmarked) [Example 69, 2-(2-Ethoxybenzoylamino)-4,5,6,7-tetrahydrobenzthiazol-4-carboxylic acid[3-(methylphenyl-amino)propyl]amide]
- % Inhibition of 5-HT uptake [10 μM] (5-HT uptake; [1]): 80%

SMILES: O=C(Cc1cccs1)Nc1nc2c(s1)CCCC2C(=O)N1CCN(C(c2ccccc2)c2ccccc2)CC1 (centres unmarked) [Example 84, N-[4-(4-Benzhydrylpiperazin-1-carbonyl)-4,5,6,7-tetrahydrobenzthiazol-2-yl]-2-thiophen-2-ylacetamide]
- inhibition at 10 µM (5-HT uptake; [1]): 53%

SMILES: CCCCCCNc1nc2c(s1)CCCC2C(=O)N(C)C1CCN(Cc2cc3ccccc3o2)C1 (centres unmarked) [Example 41, 2-Hexanylamino-4,5,6,7-tetrahydrobenzthiazol-4-carboxylic acid(1-benzofuran-2-ylmethylpyrrolidin-3-yl)methylamide]
- % Inhibition of 5-HT uptake [10 μM] (5-HT uptake; [1]): 77%

SMILES: COc1ccc(N2CCN(C(=O)C3CCCc4sc(NC(=O)C(C)c5ccccc5)nc43)CC2C)cc1 (centres unmarked) [Example 60, N-{4-[4-(4-Methoxyphenyl)-3-methylpiperazin-1-carbonyl]-4,5,6,7-tetrahydrobenzthiazol-2-yl}-2-phenylpropionamide]
- inhibition at 10 µM (NA transporter): 41%
